Results published in patent US12516056B2, “Compounds for inhibition of janus kinase 1” (MANKIND PHARMA LTD., priority 2019, dated 2026).
Blank lines part the entries; values can stand above or below the compound they belong to.

Tests used:
Recombinant JAK3 = target: T1, Recombinant JAK3 (Homo sapiens, UniProt P52333); experiment: JAK biochemical assay (LANCE Ultra TR-FRET), JAK3; details: recombinant JAK3, TR-FRET; read-out: Biochemical Assay (μM) JAK3
T1 construct: purchased Carna Biosciences
T1 sequence (P52333 1-1124): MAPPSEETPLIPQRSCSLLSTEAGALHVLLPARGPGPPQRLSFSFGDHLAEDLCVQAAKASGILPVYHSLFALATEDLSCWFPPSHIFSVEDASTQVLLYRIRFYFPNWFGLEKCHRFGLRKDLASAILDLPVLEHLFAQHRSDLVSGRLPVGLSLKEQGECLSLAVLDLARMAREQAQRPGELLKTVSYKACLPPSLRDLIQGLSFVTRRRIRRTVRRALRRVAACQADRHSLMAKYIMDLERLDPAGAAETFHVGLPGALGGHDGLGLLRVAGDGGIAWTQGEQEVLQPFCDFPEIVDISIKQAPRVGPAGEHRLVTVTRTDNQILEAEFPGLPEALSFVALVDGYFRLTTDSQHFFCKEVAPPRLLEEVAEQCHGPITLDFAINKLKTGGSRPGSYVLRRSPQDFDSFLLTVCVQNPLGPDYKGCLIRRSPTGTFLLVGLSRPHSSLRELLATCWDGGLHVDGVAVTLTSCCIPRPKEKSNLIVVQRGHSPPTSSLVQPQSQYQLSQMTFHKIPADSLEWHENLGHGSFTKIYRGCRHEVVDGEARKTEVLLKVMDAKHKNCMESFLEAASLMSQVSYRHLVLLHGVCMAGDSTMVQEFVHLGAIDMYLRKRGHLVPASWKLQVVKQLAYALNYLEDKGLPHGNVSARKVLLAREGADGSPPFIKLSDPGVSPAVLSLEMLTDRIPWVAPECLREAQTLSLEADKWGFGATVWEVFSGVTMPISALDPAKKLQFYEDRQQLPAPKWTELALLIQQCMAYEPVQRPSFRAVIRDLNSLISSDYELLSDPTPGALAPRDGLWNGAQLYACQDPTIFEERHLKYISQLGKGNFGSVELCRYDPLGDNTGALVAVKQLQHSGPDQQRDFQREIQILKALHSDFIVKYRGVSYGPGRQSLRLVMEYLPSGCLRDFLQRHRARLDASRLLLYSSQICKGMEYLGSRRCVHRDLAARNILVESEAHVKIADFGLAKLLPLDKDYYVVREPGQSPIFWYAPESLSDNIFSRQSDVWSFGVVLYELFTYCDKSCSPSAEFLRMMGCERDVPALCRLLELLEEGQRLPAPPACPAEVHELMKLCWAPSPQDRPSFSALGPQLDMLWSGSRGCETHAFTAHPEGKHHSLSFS
Method in brief: (§1)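 Kinase reactions ran in buffer of 50 mM HEPES pH 7.5 with 1 mM EGTA, 10 mM MgCl2, 2 mM DTT and 0.01% Tween-20, using recombinant enzyme. Phosphorylated ULight substrate was detected by TR-FRET, and compound effect expressed as % inhibition against vehicle.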

Recombinant JAK2 = target: T2, Recombinant JAK2 (Homo sapiens, UniProt O60674); experiment: JAK biochemical assay (LANCE Ultra TR-FRET), JAK2; details: recombinant JAK2, TR-FRET; read-out: Biochemical Assay (μM) JAK2
T2 construct: purchased Carna Biosciences
Method in brief: as §1

Recombinant TYK2 = target: T3, Recombinant TYK2 (Homo sapiens, UniProt P29597); experiment: JAK biochemical assay (LANCE Ultra TR-FRET), TYK2; details: recombinant TYK2, TR-FRET; read-out: Biochemical Assay (μM) TYK2
T3 construct: purchased Carna Biosciences
Method in brief: as §1

[1] = system: STAT3 phosphorylation by IL-6 in TF-1 cells; experiment: JAK cellular assay: STAT3 phosphorylation by IL-6 in TF-1 cells (HTRF); type: cell-based; details: Homo sapiens, TF-1, TF-1 cells, IL-6 30 ng/ml, pSTAT3 HTRF; read-out: Cell Based Assay (μM) TF-1/IL-6/pSTAT3
Protocol: TF-1 cells were starved overnight in OptiMEM medium with 0.5% charcoal stripped fetal bovine serum, 0.1 mM nonessential amino acids (NEAA), 1 mM sodium pyruvate and without phenol red in CO2 incubator maintained at 37° c. Next day, cells were resuspended in RPMI without phenol red and dispensed into a 96 well plate at a final cell density of 1,20,000 cells per well. Compounds were diluted in DMSO and added to cells and incubated for 30 minutes in CO2 incubator maintained at 37° c. Final DMSO concentration in cell based assay was 0.2%. Human recombinant cytokines, IL-6 (30 ng/ml) and GMCSF (5 ng/ml) were added to the plate containing cells along with compound and incubated for 20 minutes with gentle tapping at every 5 minutes once. Compound mediated effects on STAT3 and STAT5 phosphorylation was measured in the lysates prepared by using CISBIO pSTAT3 and pSTAT5 detection kits by HTRF method. Background signal obtained from cells which were not activated with cytokines, was subtracted from vehicle controls and compound treated wells.

Recombinant JAK1 = target: T4, Recombinant JAK1 (Homo sapiens, UniProt P23458); experiment: JAK biochemical assay (LANCE Ultra TR-FRET), JAK1; details: recombinant JAK1, TR-FRET; read-out: Biochemical Assay (μM) JAK1
T4 construct: purchased Carna Biosciences
Method in brief: as §1

T2 sequence (O60674 whole entry): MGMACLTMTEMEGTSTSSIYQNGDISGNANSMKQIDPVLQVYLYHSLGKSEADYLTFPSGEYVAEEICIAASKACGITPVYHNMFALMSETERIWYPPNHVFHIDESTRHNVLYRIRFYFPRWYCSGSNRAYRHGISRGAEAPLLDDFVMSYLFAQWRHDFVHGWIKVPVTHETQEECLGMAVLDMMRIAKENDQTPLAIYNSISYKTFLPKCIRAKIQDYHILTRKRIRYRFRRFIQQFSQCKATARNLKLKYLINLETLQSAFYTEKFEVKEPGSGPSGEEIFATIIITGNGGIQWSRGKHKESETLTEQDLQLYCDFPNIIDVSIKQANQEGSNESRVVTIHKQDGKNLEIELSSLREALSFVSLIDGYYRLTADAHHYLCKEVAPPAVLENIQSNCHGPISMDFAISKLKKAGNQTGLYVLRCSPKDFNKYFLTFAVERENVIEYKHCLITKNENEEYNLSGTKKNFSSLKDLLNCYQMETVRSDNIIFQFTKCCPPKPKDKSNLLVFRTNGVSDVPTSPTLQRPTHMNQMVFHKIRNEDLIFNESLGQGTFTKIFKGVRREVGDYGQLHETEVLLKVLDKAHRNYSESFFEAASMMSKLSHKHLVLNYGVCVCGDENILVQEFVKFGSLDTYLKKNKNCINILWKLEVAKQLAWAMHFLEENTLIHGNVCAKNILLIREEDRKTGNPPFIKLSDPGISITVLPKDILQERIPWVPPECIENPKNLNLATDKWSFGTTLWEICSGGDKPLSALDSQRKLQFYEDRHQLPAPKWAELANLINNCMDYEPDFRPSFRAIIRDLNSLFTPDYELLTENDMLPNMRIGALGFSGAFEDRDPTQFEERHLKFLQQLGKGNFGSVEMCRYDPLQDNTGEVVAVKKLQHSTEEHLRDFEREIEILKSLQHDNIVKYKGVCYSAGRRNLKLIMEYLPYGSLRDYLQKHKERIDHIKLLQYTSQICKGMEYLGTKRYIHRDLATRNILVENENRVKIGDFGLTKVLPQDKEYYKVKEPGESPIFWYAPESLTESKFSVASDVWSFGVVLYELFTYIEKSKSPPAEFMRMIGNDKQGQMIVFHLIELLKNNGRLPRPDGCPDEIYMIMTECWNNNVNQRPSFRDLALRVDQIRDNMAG
T4 sequence (P23458 whole entry): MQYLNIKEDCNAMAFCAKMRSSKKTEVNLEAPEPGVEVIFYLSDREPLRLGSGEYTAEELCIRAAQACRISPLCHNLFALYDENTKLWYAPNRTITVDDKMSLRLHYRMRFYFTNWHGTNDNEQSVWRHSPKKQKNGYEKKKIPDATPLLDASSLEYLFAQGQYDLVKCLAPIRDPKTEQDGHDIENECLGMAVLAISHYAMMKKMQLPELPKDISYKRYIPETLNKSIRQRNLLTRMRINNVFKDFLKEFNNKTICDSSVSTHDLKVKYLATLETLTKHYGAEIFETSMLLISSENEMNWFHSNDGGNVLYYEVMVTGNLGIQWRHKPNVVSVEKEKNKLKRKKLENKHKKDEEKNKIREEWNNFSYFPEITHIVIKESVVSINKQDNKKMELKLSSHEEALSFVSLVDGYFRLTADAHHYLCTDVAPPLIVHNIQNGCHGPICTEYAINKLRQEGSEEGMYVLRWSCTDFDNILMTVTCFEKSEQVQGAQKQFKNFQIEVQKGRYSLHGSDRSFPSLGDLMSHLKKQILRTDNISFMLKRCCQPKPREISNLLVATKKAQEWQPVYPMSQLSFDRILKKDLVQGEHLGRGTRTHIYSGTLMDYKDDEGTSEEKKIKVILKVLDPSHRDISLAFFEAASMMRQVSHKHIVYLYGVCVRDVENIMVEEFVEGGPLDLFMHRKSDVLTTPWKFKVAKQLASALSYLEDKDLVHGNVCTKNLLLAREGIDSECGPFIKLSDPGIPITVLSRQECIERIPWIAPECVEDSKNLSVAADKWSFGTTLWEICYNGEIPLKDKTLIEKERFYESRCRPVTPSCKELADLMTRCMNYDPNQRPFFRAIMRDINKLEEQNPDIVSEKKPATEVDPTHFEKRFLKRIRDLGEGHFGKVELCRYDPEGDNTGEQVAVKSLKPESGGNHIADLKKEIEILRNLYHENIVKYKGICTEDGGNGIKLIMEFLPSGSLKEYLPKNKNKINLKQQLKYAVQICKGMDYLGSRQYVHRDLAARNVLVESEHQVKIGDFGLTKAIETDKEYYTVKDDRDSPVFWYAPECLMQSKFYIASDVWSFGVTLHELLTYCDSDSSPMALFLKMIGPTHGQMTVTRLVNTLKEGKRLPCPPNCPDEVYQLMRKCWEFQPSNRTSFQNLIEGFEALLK
T3 sequence (P29597 whole entry): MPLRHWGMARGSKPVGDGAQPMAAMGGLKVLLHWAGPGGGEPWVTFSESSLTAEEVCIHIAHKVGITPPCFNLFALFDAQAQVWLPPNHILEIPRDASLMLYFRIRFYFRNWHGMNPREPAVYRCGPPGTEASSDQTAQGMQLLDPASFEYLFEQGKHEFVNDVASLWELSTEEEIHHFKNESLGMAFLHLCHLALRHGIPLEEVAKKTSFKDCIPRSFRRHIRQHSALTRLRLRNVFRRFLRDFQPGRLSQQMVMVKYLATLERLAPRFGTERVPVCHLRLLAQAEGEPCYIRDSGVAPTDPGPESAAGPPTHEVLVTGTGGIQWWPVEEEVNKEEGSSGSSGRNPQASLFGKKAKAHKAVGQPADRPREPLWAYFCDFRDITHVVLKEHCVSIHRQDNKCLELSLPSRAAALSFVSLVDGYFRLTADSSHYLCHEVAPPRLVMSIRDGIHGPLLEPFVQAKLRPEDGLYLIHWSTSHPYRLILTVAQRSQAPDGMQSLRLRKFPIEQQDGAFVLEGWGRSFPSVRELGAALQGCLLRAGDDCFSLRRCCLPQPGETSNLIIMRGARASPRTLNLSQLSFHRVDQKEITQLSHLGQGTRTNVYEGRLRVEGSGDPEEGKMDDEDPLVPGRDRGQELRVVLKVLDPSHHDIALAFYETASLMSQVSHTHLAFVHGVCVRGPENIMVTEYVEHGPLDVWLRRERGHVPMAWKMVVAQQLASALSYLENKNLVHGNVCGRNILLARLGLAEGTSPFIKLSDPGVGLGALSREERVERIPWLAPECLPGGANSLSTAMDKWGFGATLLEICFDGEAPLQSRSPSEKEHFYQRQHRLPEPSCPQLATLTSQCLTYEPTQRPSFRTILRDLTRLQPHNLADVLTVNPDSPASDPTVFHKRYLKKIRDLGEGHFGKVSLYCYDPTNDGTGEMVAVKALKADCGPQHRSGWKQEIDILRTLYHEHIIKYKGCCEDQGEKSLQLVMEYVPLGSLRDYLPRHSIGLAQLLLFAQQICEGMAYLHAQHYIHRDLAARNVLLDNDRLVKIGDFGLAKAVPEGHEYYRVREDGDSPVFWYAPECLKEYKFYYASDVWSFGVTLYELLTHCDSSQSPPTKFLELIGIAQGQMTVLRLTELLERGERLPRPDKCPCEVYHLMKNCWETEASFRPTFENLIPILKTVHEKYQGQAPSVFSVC

IC50 (Recombinant JAK3): 0.005 µM
IC50 (Recombinant JAK2): 0.01 µM
IC50 (Recombinant TYK2): > 0.5 µM
IC50 [1]: > 1 µM
SMILES: CC(C)NCC[C@H](c1ccc(-n2cc(-c3ccnc4[nH]cnc34)cn2)nc1)C(F)(F)F [Example 1208, (R)-3-(6-(4-(3H-imidazo[4,5-b]pyridin-7-yl)-1H-pyrazol-1-yl)pyridin-3-yl)-4,4,4-trifluoro-N-isopropylbutan-1-amine]

IC50 (Recombinant JAK1): > 0.5 µM
IC50 (Recombinant JAK3): > 1 µM
IC50 (Recombinant JAK2): > 0.5 µM
IC50 (Recombinant TYK2): > 1 µM
IC50 [1]: > 10 µM
SMILES: CC1(C)CN(C(=O)Nc2ccc(-c3ccnc4[nH]c(=O)[nH]c34)cc2)C1 [Example 1007, N-(4-(2,3-dihydro-2-oxo-1H-imidazo[4,5-b]pyridin-7-yl)phenyl)-3,3-dimethylazetidine-1-carboxamide]

IC50 (Recombinant JAK1): > 0.5 µM
IC50 (Recombinant JAK3): > 0.5 µM
IC50 (Recombinant JAK2): > 0.5 µM
IC50 (Recombinant TYK2): > 0.5 µM
IC50 [1]: > 10 µM
SMILES: COCCC(C#N)NC(=O)n1cc(-c2ccnc3[nH]cnc23)cn1 (stereo not drawn) [Example 1071, N-(1-cyano-3-methoxypropyl)-4-(3H-imidazo[4,5-b]pyridin-7-yl)-1H-pyrazole-1-carboxamide]

IC50 (Recombinant JAK1): > 0.5 µM
IC50 (Recombinant JAK3): > 0.5 µM
IC50 (Recombinant JAK2): > 0.5 µM
IC50 (Recombinant TYK2): > 0.5 µM
IC50 [1]: 10 µM
SMILES: N#CC(NC(=O)n1cc(-c2ccnc3[nH]c(=O)[nH]c23)cn1)C1CCCC1 (stereo not drawn) [Example 1038, N-(cyano(cyclopentyl)methyl)-4-(2,3-dihydro-2-oxo-1H-imidazo[4,5-b]pyridin-7-yl)-1H-pyrazole-1-carboxamide]

IC50 (Recombinant JAK1): > 1 µM
IC50 (Recombinant JAK3): > 10 µM
IC50 (Recombinant JAK2): > 1 µM
IC50 (Recombinant TYK2): > 10 µM
SMILES: O=C(NCC1CCCC1)n1cc(-c2ccnc3[nH]c(=O)[nH]c23)cn1 [Example 1034, N-(cyclopentylmethyl)-4-(2,3-dihydro-2-oxo-1H-imidazo[4,5-b]pyridin-7-yl)-1H-pyrazole-1-carboxamide]

The next lines start with the compound.

SMILES: O=C(NCC(F)(F)F)Nc1ccc(-c2ccnc3[nH]c(=O)[nH]c23)cc1 [Example 1003, 1-(2,2,2-trifluoroethyl)-3-(4-(2,3-dihydro-2-oxo-1H-imidazo[4,5-b]pyridin-7-yl)phenyl)urea]
IC50 (Recombinant JAK1): 0.021 µM
IC50 (Recombinant JAK3): 0.175 µM
IC50 (Recombinant JAK2): 0.036 µM
IC50 (Recombinant TYK2): 0.182 µM
IC50 [1]: > 10 µM

SMILES: O=C(NCC(F)(F)F)N1CCN(c2ccnc3[nH]c(-c4ccccc4)nc23)CC1 [Example 1022, N-(2,2,2-trifluoroethyl)-4-(2-phenyl-3H-imidazo[4,5-b]pyridin-7-yl)piperazine-1-carboxamide]
IC50 (Recombinant JAK1): < 0.5 µM
IC50 (Recombinant JAK3): < 0.5 µM
IC50 (Recombinant JAK2): < 0.5 µM
IC50 (Recombinant TYK2): < 0.5 µM
IC50 [1]: > 10 µM

SMILES: N#CC1CCCCC1NC(=O)n1cc(-c2ccnc3[nH]cnc23)cn1 (stereo not drawn) [Example 1066, N-(2-cyanocyclohexyl)-4-(3H-imidazo[4,5-b]pyridin-7-yl)-1H-pyrazole-1-carboxamide]
IC50 (Recombinant JAK3): > 0.5 µM
IC50 (Recombinant JAK2): > 0.5 µM
IC50 (Recombinant TYK2): > 0.5 µM
IC50 [1]: > 10 µM

SMILES: CC(C)NCC(c1ccc(-n2cc(-c3ccnc4[nH]cnc34)cn2)nc1)C(F)(F)F (stereo not drawn) [Example 1218, 2-(6-(4-(3H-imidazo[4,5-b]pyridin-7-yl)-1H-pyrazol-1-yl)pyridin-3-yl)-3,3,3-trifluoro-N-isopropylpropan-1-amine]
IC50 [1]: > 0.5 µM

SMILES: CCCS(=O)(=O)NC1CCN(C(=O)n2cc(-c3ccnc4[nH]cnc34)cn2)C1 (stereo not drawn) [Example 1069, N-(1-(4-(3H-imidazo[4,5-b]pyridin-7-yl)-1H-pyrazole-1-carbonyl)pyrrolidin-3-yl)propane-1-sulfonamide]
IC50 (Recombinant JAK1): > 10 µM
IC50 (Recombinant JAK3): > 0.5 µM
IC50 (Recombinant JAK2): > 1 µM
IC50 (Recombinant TYK2): > 1 µM
